Key:
[1] = test system: cells from the thymus of normal BALB/c mice; assay: comitogen-induced thymocyte proliferation procedure (LAF); format: cell-based; details: PHA and IL-1, 72 hours, tritiated thymidine last six hours
Experimental: Immunosuppresive activity of the compounds of the present invention was evaluated in an in vitro standard pharmacological test procedure to measure lymphocyte proliferation (LAF).
Briefly, cells from the thymus of normal BALB/c mice were cultured for 72 hours with PHA and IL-1 and pulsed with tritiated thymidine during the last six hours. […] Cells are harvested and incorporated; radioactivity is determined. Inhibition of lymphoproliferation is assessed in percent change in counts per minute from non-drug treated controls. The results are expressed by the following ratio: [formula]

IGE-like antibodies = details: in vivo; cited from earlier work
[2] = test system: experimental allergic encephalomyelitis model; details: model for multiple sclerosis; cited from earlier work
[3] = cited from earlier work
transplant rejection = details: in vivo; cited from earlier work
Candida albicans = details: both in vitro and in vivo; cited from earlier work
adjuvant arthritis model = details: model for rheumatoid arthritis; cited from earlier work

CO[C@H]1C[C@@H]2CC[C@@H](C)[C@@](O)(O2)C(=O)C(=O)N2CCCC[C@H]2C(=O)O[C@H]([C@H](C)C[C@@H]2CC[C@@H](OC(=O)CCCCCCC(=O)O[C@@H]3CC[C@@H](C[C@@H](C)[C@@H]4CC(=O)[C@H](C)/C=C(\C)[C@@H](O)[C@@H](OC)C(=O)[C@H](C)C[C@H](C)/C=C/C=C/C=C(\C)[C@@H](OC)C[C@@H]5CC[C@@H](C)[C@@](O)(O5)C(=O)C(=O)N5CCCC[C@H]5C(=O)O4)C[C@H]3OC)[C@H](OC)C2)CC(=O)[C@H](C)/C=C(\C)[C@@H](O)[C@@H](OC)C(=O)[C@H](C)C[C@H](C)/C=C/C=C/C=C/1C [Example 3, Rapamycin-42,42'-diester with octanedioic acid]
R/*A at 10 nM (relative potency of analogs/rapamycin) [1]: 0.59 | R/*A at 100 nM (relative potency of analogs/rapamycin) [1]: 1.0

CO[C@H]1C[C@@H]2CC[C@@H](C)[C@@](O)(O2)C(=O)C(=O)N2CCCC[C@H]2C(=O)O[C@H]([C@H](C)C[C@@H]2CC[C@@H](O)[C@H](OC)C2)CC(=O)[C@H](C)/C=C(\C)[C@@H](O)[C@@H](OC)C(=O)[C@H](C)C[C@H](C)/C=C/C=C/C=C/1C [Rapamycin]
inhibition of the formation of IGE-like antibodies (IGE-like antibodies): effectively inhibited | effect in the experimental allergic encephalomyelitis model [2]: effective | antitumor activity ([3]; alone): antitumor activity | antitumor activity in combination ([3]; in combination with picibanil): antitumor activity | inhibiting transplant rejection (transplant rejection): effective in inhibiting transplant rejection | antifungal activity (Candida albicans): antifungal activity | effect in the adjuvant arthritis model (adjuvant arthritis model): effective

CO[C@H]1C[C@@H]2CC[C@@H](C)[C@@](O)(O2)C(=O)C(=O)N2CCCC[C@H]2C(=O)O[C@H]([C@H](C)C[C@@H]2CC[C@@H](OC(=O)CCCCC(=O)O[C@@H]3CC[C@@H](C[C@@H](C)[C@@H]4CC(=O)[C@H](C)/C=C(\C)[C@@H](O)[C@@H](OC)C(=O)[C@H](C)C[C@H](C)/C=C/C=C/C=C(\C)[C@@H](OC)C[C@@H]5CC[C@@H](C)[C@@](O)(O5)C(=O)C(=O)N5CCCC[C@H]5C(=O)O4)C[C@H]3OC)[C@H](OC)C2)CC(=O)[C@H](C)/C=C(\C)[C@@H](O)[C@@H](OC)C(=O)[C@H](C)C[C@H](C)/C=C/C=C/C=C/1C [Example 1, Rapamycin-42,42'-diester with hexanedioic acid]
R/*A at 10 nM (relative potency of analogs/rapamycin) [1]: 0.95 | R/*A at 100 nM (relative potency of analogs/rapamycin) [1]: 1.0

CO[C@H]1C[C@@H]2CC[C@@H](C)[C@@](O)(O2)C(=O)C(=O)N2CCCC[C@H]2C(=O)O[C@H]([C@H](C)C[C@@H]2CC[C@@H](OC(=O)CCCCCC(=O)O[C@@H]3CC[C@@H](C[C@@H](C)[C@@H]4CC(=O)[C@H](C)/C=C(\C)[C@@H](O)[C@@H](OC)C(=O)[C@H](C)C[C@H](C)/C=C/C=C/C=C(\C)[C@@H](OC)C[C@@H]5CC[C@@H](C)[C@@](O)(O5)C(=O)C(=O)N5CCCC[C@H]5C(=O)O4)C[C@H]3OC)[C@H](OC)C2)CC(=O)[C@H](C)/C=C(\C)[C@@H](O)[C@@H](OC)C(=O)[C@H](C)C[C@H](C)/C=C/C=C/C=C/1C [Example 2, Rapamycin-42,42'-diester with heptanedioic acid]
R/*A at 10 nM (relative potency of analogs/rapamycin) [1]: 0.28 | R/*A at 100 nM (relative potency of analogs/rapamycin) [1]: 0.96

CO[C@H]1C[C@@H]2CC[C@@H](C)[C@@](O)(O2)C(=O)C(=O)N2CCCC[C@H]2C(=O)O[C@H]([C@H](C)C[C@@H]2CC[C@@H](OC(=O)CCCCCCCC(=O)O[C@@H]3CC[C@@H](C[C@@H](C)[C@@H]4CC(=O)[C@H](C)/C=C(\C)[C@@H](O)[C@@H](OC)C(=O)[C@H](C)C[C@H](C)/C=C/C=C/C=C(\C)[C@@H](OC)C[C@@H]5CC[C@@H](C)[C@@](O)(O5)C(=O)C(=O)N5CCCC[C@H]5C(=O)O4)C[C@H]3OC)[C@H](OC)C2)CC(=O)[C@H](C)/C=C(\C)[C@@H](O)[C@@H](OC)C(=O)[C@H](C)C[C@H](C)/C=C/C=C/C=C/1C [Example 4, Rapamycin-42,42'-diacid with nonanedioic acid]
R/*A at 10 nM (relative potency of analogs/rapamycin) [1]: 1.10 | R/*A at 100 nM (relative potency of analogs/rapamycin) [1]: 1.0
